Data as given in publication PMC6826779, “Bis-allylic Deuterated DHA Alleviates Oxidative Stress in Retinal Epithelial Cells” (Antioxidants, 2019).

Experiment: Radical oxidation of DHAs with AAPH, LC-MS/MS quantification of 4-F4t-NeuroP
Format: physicochemical
Conditions: AAPH 1 mM, phosphate buffer/methanol, 37 °C, 14 h; compared to natural DHA
Description: A solution of DHA in methanol (1 mg/mL, 0.5 mL) was added to 4.5 mL of phosphate-buffered saline solution (pH = 7.3) containing 1 mM of AAPH. The mixture was heated at 37 °C for 14 h, and then allowed to reach room temperature The mixture was spiked with 4 ng of internal standard (IS: C21-15-F2t-IsoP) and then purified using solid phase extraction.
For solid-phase extraction (SPE), Oasis MAX mixed polymer phase anion exchanger cartridges were used. Aliquots of 2 mL of sample were loaded on the cartridges previously conditioned with 2 mL of methanol and equilibrated with 2 mL of 0.02 M of formic acid (pH 4.5). […] Recoveries were determined to range between 83 and 100% (see Supplementary Materials). […]
Mass spectrometry analysis was performed on an AB SCIEX QTRAP 5500 (Sciex). […] Quantification was accomplished using external calibration lines constructed with the internal standard (IS: C21-15-F2t-IsoP). The data are presented as means ± SD determined from 3 independent experiments, each performed in triplicate assay.
Standards solutions of IS (C21-15-F2t-IsoP) and NeuroP standardt (4(RS)-F4t-NeuroP) used to determine the different characteristic transitions and the elution time for each compound were prepared in methanol at 1 µg/mL from 1 mg/mL stock solution in methanol. […] Finally, calibration curves were calculated by the area ratio of the NeuroP and the internal standard.

With [2H]C([2H])(/C=C\C/C=C\C/C=C\C/C=C\C/C=C\CC)/C=C\CCC(=O)O [D2-DHA, (6,6-D2)-DHA] the “4-F4t-NeuroP formation after radical oxidation” value was “decrease of 4-F4t-NeuroP formation”.
With [2H]C([2H])(C=CCC=CCC=CCC=CCC)C=CC([2H])([2H])C=CCCC(=O)O [D4-DHA, (6,6,9,9-D4)-DHA] the “4-F4t-NeuroP formation after radical oxidation” value was “decrease of 4-F4t-NeuroP formation”.
